Source: US20250115607A1, “PYRIDINE DERIVATIVES” (Hoffmann-La Roche Inc., priority 2022, published 2025)
pIC50: −log10 of the molar value.

Columns and labels:
Format in all cases: biochemical
SIK1 = SIK1 (Homo sapiens (Human), UniProt P57059); experiment: Phosphorylation assay SIK1 (RapidFire mass spectrometry); conditions: 5 nM SIK1, CHK-peptide, ATP, 30 min pre-incubation, 45 min incubation; read-out: SIK1 RF IC50
Procedure: (§1) In the presence of SIK2 (resp. SIK1 or SIK3) and ATP the CHK-peptide ([…] with C-terminal arginine amide modification) were phosphorylated at one of the four feasible serine's. Only one phosphorylation is observed under the assay conditions. 60 nl of each compound dilution series (12 point; dilution factor 3, generally 30 μM to 170 pM) in DMSO were transferred by acoustic dispensing to the assay plate and 30 minutes pre-incubated (ambient temperature) after the addition of 5 μl SIK1 (5 nM) resp. 5 μl SIK2 (0.5 nM) or 7 μl SIK3 (1.5 nM) in assay-buffer (12.5 mM HEPES (pH 7.0), 10 mM magnesium acetate, 0.005% BSA). 10 μM CHK-peptide solution and 5 μl of 100 μM ATP for SIK1 & SIK2 resp. 3 μl for SIK3 in assay-buffer were added and incubated ambient for 45 minutes. 40 μl of 0.125% formic acid in water were added to quench the reaction. RapidFire (RF) Mass Spectrometry was utilized for data generation as described below. The multiple charged species (3-5 charges) for the phosphorylated and non-phosphorylated form measured by MRM (Multiple Reaction Monitoring; API5000 or 6500+) or EIC (Extracted Ion Current; QToF) were summed up and the ratio calculated (sum phosphorylated species/sum all species) for data evaluation. Normalization was performed by Genedata software based on the non-inhibition control DMSO and the commercially available STK inhibitor @1 μM YKL-05-099 (CAS number 1936529-65-5). The results of the assay are expressed in half-maximal inhibitory concentrations (IC50s) and are summarized below in Table 1.
(§2) Samples were aspirated by vacuum for max. 600 ms and loaded to C4-cartridge (Agilent; #G9203A) for 3000 ms@1.5 ml/min with 0.1% formic acid in water. Afterwards samples were transferred to the API5000 (API6500+) or QToF mass spectrometer for 4000 ms@1.25 ml/min with 90% acetonitrile; 10% water; 0.007% TFA; 0.093 formic acid. The cartridge was reconditioned for additional 500 ms with 0.1% formic acid in water.
(§3) All MS analyses using the following MS-setup in MRM mode: Electrospray positive; Ion Spray Voltage: 4000V; Temperature: 550° C.; Collision Gas: 5; Curtain Gas: 15; Gas 1: 40; Gas 2: 42; EP: 10. DP=declustering potential; CE=collision energy; CXP=cell exit potential.
(§4) All MS analyses using the following MS-setup in Mode MS: Dual AJS Electrospray positive; VCap: 3000V; Drying & Sheath gas: 340° C.@81/min; Nebulizer: 60 psig; Nozzle Voltage: 2000V; Fragmentor: 130V; Skimmer: 35V; Oct1 RF Vpp: 700V; Ref masses on@5 spectra/s

SIK3 = SIK3 (Homo sapiens (Human), UniProt Q9Y2K2); experiment: Phosphorylation assay SIK3 (RapidFire mass spectrometry); conditions: 1.5 nM SIK3, CHK-peptide, ATP, 30 min pre-incubation, 45 min incubation; read-out: SIK3 RF IC50
Procedure: as §1, §2, §3, §4

SIK2 = SIK2 (Homo sapiens (Human), UniProt Q9H0K1); experiment: Phosphorylation assay SIK2 (RapidFire mass spectrometry); conditions: 0.5 nM SIK2, CHK-peptide, ATP, 30 min pre-incubation, 45 min incubation; read-out: SIK2 RF IC50
Procedure: as §1, §2, §3, §4

Chain of SIK1 (P57059 whole entry): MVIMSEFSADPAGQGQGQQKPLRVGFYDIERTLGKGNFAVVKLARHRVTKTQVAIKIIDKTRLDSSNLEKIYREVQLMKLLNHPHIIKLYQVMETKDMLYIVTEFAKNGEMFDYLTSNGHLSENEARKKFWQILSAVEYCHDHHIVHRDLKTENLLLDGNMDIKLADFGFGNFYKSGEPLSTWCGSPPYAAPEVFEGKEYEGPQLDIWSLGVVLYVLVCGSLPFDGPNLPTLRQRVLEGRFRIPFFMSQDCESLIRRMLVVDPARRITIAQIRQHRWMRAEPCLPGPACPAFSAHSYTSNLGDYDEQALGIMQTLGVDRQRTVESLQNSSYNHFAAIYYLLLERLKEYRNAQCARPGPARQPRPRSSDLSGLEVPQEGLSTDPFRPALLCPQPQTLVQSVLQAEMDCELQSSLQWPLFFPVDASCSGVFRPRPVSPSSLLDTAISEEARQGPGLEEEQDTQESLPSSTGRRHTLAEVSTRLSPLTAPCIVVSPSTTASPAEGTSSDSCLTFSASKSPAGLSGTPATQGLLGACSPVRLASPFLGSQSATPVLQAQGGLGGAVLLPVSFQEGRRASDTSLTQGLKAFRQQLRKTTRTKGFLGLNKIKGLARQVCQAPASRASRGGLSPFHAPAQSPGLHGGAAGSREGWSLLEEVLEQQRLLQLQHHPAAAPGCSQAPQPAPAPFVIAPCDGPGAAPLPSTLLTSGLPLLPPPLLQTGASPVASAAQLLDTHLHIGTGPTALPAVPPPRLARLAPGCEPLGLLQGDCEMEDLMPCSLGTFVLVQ
Chain of SIK3 (Q9Y2K2 whole entry): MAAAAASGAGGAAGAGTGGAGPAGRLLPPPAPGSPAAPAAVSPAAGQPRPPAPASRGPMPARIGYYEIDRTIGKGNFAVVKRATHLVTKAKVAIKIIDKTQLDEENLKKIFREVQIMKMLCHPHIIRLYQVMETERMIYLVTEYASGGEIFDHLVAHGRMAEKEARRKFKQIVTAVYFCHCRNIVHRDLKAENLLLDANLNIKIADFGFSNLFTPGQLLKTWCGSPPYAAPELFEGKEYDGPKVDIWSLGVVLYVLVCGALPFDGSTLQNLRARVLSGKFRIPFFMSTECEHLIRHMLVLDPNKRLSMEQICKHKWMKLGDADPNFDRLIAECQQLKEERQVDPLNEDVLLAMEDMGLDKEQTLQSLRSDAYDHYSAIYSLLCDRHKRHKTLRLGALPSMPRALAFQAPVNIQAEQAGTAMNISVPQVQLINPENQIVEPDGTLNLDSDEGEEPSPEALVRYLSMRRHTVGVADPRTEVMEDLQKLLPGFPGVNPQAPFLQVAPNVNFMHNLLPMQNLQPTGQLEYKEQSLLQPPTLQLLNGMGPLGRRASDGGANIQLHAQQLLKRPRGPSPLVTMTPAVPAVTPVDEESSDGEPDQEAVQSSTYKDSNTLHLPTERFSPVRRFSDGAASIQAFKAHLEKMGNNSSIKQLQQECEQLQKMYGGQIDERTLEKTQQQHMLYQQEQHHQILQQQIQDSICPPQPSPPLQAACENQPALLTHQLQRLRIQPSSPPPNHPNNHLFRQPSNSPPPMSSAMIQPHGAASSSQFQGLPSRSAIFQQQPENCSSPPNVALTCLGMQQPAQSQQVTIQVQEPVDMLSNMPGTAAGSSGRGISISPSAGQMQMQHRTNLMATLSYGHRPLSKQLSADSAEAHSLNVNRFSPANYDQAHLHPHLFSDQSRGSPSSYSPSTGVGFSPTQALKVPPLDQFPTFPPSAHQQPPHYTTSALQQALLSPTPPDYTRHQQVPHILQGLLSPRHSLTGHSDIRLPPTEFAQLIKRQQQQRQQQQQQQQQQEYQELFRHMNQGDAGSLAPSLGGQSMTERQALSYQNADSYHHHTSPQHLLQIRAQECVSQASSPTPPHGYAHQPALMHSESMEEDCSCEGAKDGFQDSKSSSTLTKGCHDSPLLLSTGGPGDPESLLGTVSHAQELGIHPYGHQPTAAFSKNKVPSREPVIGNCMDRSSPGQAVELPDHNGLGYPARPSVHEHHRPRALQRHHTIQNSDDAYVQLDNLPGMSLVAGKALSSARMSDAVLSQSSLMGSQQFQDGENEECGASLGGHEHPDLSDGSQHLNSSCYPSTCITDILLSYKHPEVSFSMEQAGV
Chain of SIK2 (Q9H0K1 whole entry): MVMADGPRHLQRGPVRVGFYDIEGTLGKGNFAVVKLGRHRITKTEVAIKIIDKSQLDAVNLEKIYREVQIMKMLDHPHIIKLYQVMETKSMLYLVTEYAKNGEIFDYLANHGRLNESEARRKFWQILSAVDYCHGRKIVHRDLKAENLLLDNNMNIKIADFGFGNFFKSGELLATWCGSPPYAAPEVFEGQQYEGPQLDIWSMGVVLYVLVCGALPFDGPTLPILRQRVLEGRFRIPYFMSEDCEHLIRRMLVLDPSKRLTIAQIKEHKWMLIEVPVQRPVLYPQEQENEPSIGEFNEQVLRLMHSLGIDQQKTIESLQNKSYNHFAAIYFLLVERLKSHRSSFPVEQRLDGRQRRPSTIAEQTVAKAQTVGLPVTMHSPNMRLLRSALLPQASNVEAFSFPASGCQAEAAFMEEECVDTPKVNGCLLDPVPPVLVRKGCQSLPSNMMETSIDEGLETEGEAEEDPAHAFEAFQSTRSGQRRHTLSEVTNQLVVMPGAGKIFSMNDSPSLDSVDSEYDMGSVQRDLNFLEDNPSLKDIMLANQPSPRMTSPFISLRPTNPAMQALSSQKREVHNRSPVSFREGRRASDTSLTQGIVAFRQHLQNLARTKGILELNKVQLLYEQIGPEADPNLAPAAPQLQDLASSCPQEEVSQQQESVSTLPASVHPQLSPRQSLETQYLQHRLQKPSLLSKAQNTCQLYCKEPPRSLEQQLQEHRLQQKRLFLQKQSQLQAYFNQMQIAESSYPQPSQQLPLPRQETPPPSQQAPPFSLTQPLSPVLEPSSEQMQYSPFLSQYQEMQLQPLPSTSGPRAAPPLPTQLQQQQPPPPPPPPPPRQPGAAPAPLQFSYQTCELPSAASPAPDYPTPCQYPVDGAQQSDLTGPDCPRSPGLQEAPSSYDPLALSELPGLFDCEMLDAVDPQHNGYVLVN

Structure (SMILES) | pIC50 (SIK1) | pIC50 (SIK3) | pIC50 (SIK2)
Cc1ccc(Nc2cc3ncn(-c4ccc(C(C)O)c(-n5nc(C#N)cc5C)n4)c3cn2)nn1 (stereo not drawn) [Example 2, 1-[3-(1-Hydroxyethyl)-6-[6-[(6-methylpyridazin-3-yl)amino]imidazo[4,5-c]pyridin-3-yl]-2-pyridyl]-5-methyl-pyrazole-3-carbonitrile] | 6.44 | 8.52 | 8.30
Cc1ccc(Nc2cc3ncn(-c4ccc(C(C)O)c(-n5nc(C#N)cc5C)n4)c3cn2)cn1 (stereo not drawn) [Example 3, 1-[3-(1-Hydroxyethyl)-6-[6-[(6-methyl-3-pyridyl)amino]imidazo[4,5-c]pyridin-3-yl]-2-pyridyl]-5-methyl-pyrazole-3-carbonitrile] | 7.11 | 7.66 | 7.66
Cc1ccc(Nc2cc3ncn(-c4ccc(C(C)O)c(-c5cn(CC(F)(F)F)nc5C)n4)c3cn2)nn1 (stereo not drawn) [Example 4, 1-[6-[6-[(6-Methylpyridazin-3-yl)amino]imidazo[4,5-c]pyridin-3-yl]-2-[3-methyl-1-(2,2,2-trifluoroethyl)pyrazol-4-yl]-3-pyridyl]ethanol] | 6.40 | 8.52 | 8.52

Further compounds by rising pIC50 (SIK1), results first:

pIC50 (SIK1) | pIC50 (SIK3) | pIC50 (SIK2) | Structure (SMILES)
4.76 | 5.48 | 5.59 | CC(=O)c1ccc(-n2cnc3cc(N4CCOc5cc(C)nnc54)ncc32)nc1-n1nc(C#N)cc1C [Example 6, 1-[3-Acetyl-6-[6-(3-methyl-6,7-dihydropyridazino[4,3-b][1,4]oxazin-8-yl)imidazo[4,5-c]pyridin-3-yl]-2-pyridyl]-5-methyl-pyrazole-3-carbonitrile]
5.34 | 6.92 | 7.38 | CC(=O)c1ccc(-n2cnc3cc(Nc4ccc(C)nn4)ncc32)nc1-n1nc(C#N)cc1C [Example 1, 1-[3-Acetyl-6-[6-[(6-methylpyridazin-3-yl)amino]imidazo[4,5-c]pyridin-3-yl]-2-pyridyl]-5-methyl-pyrazole-3-carbonitrile]
6.06 | 8.15 | 7.80 | Cc1ccc(Nc2cc3ncn(-c4ccc(C(C)O)c(-n5nc(C(F)F)cc5C)n4)c3cn2)nn1 (stereo not drawn) [Example 7, 1-[2-[3-(difluoromethyl)-5-methyl-pyrazol-1-yl]-6-[6-[(6-methylpyridazin-3-yl)amino]imidazo[4,5-c]pyridin-3-yl]-3-pyridyl]ethanol]
